These results are taken from patent US11401271B2, “Fused heterocyclic compound, pyrazole-ring-containing fused heterocyclic compound, agricultural composition containing thereof, and method of using the composition” (SOUTH CHINA AGRICULTURAL UNIVERSITY, priority 2017, dated 2022).

SMILES strings stand for the structures.

For the first data set, the system named is Plutella xylostella. Put plainly: whole plant or invertebrate. It counts as in vivo. Particulars: 500 ppm; 2nd-instar larvae, leaf immersion feeding. In short, it runs like this: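 Cabbage leaf discs dipped 5 s in compound at 500 ppm (0.05% Tween-80 aqueous), air-dried, fed to about 35 2nd-instar larvae at 28° C., triplicate. Dead larvae counted after 24 h; mortality (%) corrected against Tween-80 control.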
Take `CNC(=O)CC1Nc2c(OC(F)(F)F)c(C#N)nn2-c2c(Cl)cc(C(F)(F)F)cc21` (stereo not drawn) [d-133]: the “Plutella xylostella Mortality (%)” value amounted to 70%.
Turning to `CC(C)C1Nc2c(OC(F)(F)F)c(C#N)nn2-c2c(Cl)cc(C(F)(F)F)cc21` (stereo not drawn) [d-141], the “Plutella xylostella Mortality (%)” value came out at 90%.
On the same count and under the same terms, the result for `COC(=O)CC1(C(=O)OC)Nc2c([S+]([O-])C(F)(F)F)c(C#N)nn2-c2c(C(F)(F)F)ccc(Cl)c21` (stereo not shown) [e-1] reads 100%; that for `CCOC(=O)CC1(C(=O)OC)Nc2c([S+]([O-])C(F)(F)F)c(C#N)nn2-c2c(C(F)(F)F)ccc(Cl)c21` (stereo not shown) [e-2], 100%.
With `COC(=O)C1(CC(=O)OCC(F)(F)F)Nc2c([S+]([O-])C(F)(F)F)c(C#N)nn2-c2c(C(F)(F)F)ccc(Cl)c21` (stereo not shown) [e-3], the “Plutella xylostella Mortality (%)” value is given as 100%.
Same read-out and setting: to `COC(=O)C1(CC(=O)OCC(F)F)Nc2c([S+]([O-])C(F)(F)F)c(C#N)nn2-c2c(C(F)(F)F)ccc(Cl)c21` (stereo not shown) [e-4] belongs 100%.
Take `CCOC(=O)CC1(C(=O)OCC)Nc2c([S+]([O-])C(F)(F)F)c(C#N)nn2-c2c(C(F)(F)F)ccc(Cl)c21` (stereo not shown) [e-5]: the “Plutella xylostella Mortality (%)” value turned out to be 100%.
The same measure, in the same setting: to `CCOC(=O)C1(CC(=O)OC)Nc2c([S+]([O-])C(F)(F)F)c(C#N)nn2-c2c(C(F)(F)F)ccc(Cl)c21` (stereo not shown) [e-6] belongs 100%; to `COC(=O)CC1(C(=O)OC)Nc2c([S+]([O-])C(F)(F)F)c(C#N)nn2-c2ccc(C(F)(F)F)c(Cl)c21` (stereo not shown) [e-7], 100%; to `COC(=O)CC1(C(=O)OC)Nc2c([S+]([O-])C(F)(F)F)c(C#N)nn2-c2c1ccc(Cl)c2C(F)(F)F` (stereo not shown) [e-13], 100%.
Still for that read-out and setting: the result for `COC(=O)CC1(C(=O)OC)Nc2c([S+]([O-])C(F)(F)F)c(C#N)nn2-c2cc(C(F)(F)F)c(Cl)cc21` (stereo not shown) [e-19] reads 100%.

The test system of another data set is Solenopsis invicta. Put plainly: whole plant or invertebrate. Type of data set: in vivo. Particulars: 100 ppm; 24 h; water test tube poison-feeding. A digest of the protocol:
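Fire ants fed compound by water test-tube poison-feeding at 100 ppm in aqueous 0.05% Tween-80/5% honey (from 10 g/L DMSO stock), kept at 25 °C. Live and dead ants counted at 24 and 72 h; mortality (%) calculated relative to live ants in the untreated control.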
Turning to `CNC(=O)CC1Nc2c(OC(F)(F)F)c(C#N)nn2-c2c(Cl)cc(C(F)(F)F)cc21` (stereo not drawn) [d-133], the “Solenopsis invicta Mortality (%) 24 h” value amounted to 21%.
On the same count and under the same terms, to `CC(C)C1Nc2c(OC(F)(F)F)c(C#N)nn2-c2c(Cl)cc(C(F)(F)F)cc21` (stereo not drawn) [d-141] belongs 11%; to `COC(=O)CC1(C(=O)OC)Nc2c([S+]([O-])C(F)(F)F)c(C#N)nn2-c2c(C(F)(F)F)ccc(Cl)c21` (stereo not shown) [e-1], 33%; to `CCOC(=O)CC1(C(=O)OC)Nc2c([S+]([O-])C(F)(F)F)c(C#N)nn2-c2c(C(F)(F)F)ccc(Cl)c21` (stereo not shown) [e-2], 25%.
The same measure, in the same setting: to `COC(=O)C1(CC(=O)OCC(F)(F)F)Nc2c([S+]([O-])C(F)(F)F)c(C#N)nn2-c2c(C(F)(F)F)ccc(Cl)c21` (stereo not shown) [e-3] belongs 20%.
Consider `COC(=O)C1(CC(=O)OCC(F)F)Nc2c([S+]([O-])C(F)(F)F)c(C#N)nn2-c2c(C(F)(F)F)ccc(Cl)c21` (stereo not shown) [e-4], for which the “Solenopsis invicta Mortality (%) 24 h” value is 32%.
With `CCOC(=O)CC1(C(=O)OCC)Nc2c([S+]([O-])C(F)(F)F)c(C#N)nn2-c2c(C(F)(F)F)ccc(Cl)c21` (stereo not shown) [e-5], the “Solenopsis invicta Mortality (%) 24 h” value is recorded as 34%.
The same measure, in the same setting: to `CCOC(=O)C1(CC(=O)OC)Nc2c([S+]([O-])C(F)(F)F)c(C#N)nn2-c2c(C(F)(F)F)ccc(Cl)c21` (stereo not shown) [e-6] belongs 34%.
On to `COC(=O)CC1(C(=O)OC)Nc2c([S+]([O-])C(F)(F)F)c(C#N)nn2-c2ccc(C(F)(F)F)c(Cl)c21` (stereo not shown) [e-7], for which the “Solenopsis invicta Mortality (%) 24 h” value was found to be 29%.
Still for that read-out and setting: to `COC(=O)CC1(C(=O)OC)Nc2c([S+]([O-])C(F)(F)F)c(C#N)nn2-c2c1ccc(Cl)c2C(F)(F)F` (stereo not shown) [e-13] belongs 20%; to `COC(=O)CC1(C(=O)OC)Nc2c([S+]([O-])C(F)(F)F)c(C#N)nn2-c2cc(C(F)(F)F)c(Cl)cc21` (stereo not shown) [e-19], 31%.

The data set is the same for the next values; noted with them: 100 ppm; 72 h; water test tube poison-feeding.
As for `CNC(=O)CC1Nc2c(OC(F)(F)F)c(C#N)nn2-c2c(Cl)cc(C(F)(F)F)cc21` (stereo not drawn) [d-133], the “Solenopsis invicta Mortality (%) 72 h” value stood at 95%.
Still for that read-out and setting: to `CC(C)C1Nc2c(OC(F)(F)F)c(C#N)nn2-c2c(Cl)cc(C(F)(F)F)cc21` (stereo not drawn) [d-141] belongs 91%.
Consider `COC(=O)CC1(C(=O)OC)Nc2c([S+]([O-])C(F)(F)F)c(C#N)nn2-c2c(C(F)(F)F)ccc(Cl)c21` (stereo not shown) [e-1], for which the “Solenopsis invicta Mortality (%) 72 h” value is on record as 100%.
Same read-out and setting: to `CCOC(=O)CC1(C(=O)OC)Nc2c([S+]([O-])C(F)(F)F)c(C#N)nn2-c2c(C(F)(F)F)ccc(Cl)c21` (stereo not shown) [e-2] belongs 100%; to `COC(=O)C1(CC(=O)OCC(F)(F)F)Nc2c([S+]([O-])C(F)(F)F)c(C#N)nn2-c2c(C(F)(F)F)ccc(Cl)c21` (stereo not shown) [e-3], 98%; to `COC(=O)C1(CC(=O)OCC(F)F)Nc2c([S+]([O-])C(F)(F)F)c(C#N)nn2-c2c(C(F)(F)F)ccc(Cl)c21` (stereo not shown) [e-4], 100%.
As to `CCOC(=O)CC1(C(=O)OCC)Nc2c([S+]([O-])C(F)(F)F)c(C#N)nn2-c2c(C(F)(F)F)ccc(Cl)c21` (stereo not shown) [e-5], the “Solenopsis invicta Mortality (%) 72 h” value is 100%.
Still for that read-out and setting: to `CCOC(=O)C1(CC(=O)OC)Nc2c([S+]([O-])C(F)(F)F)c(C#N)nn2-c2c(C(F)(F)F)ccc(Cl)c21` (stereo not shown) [e-6] belongs 100%; to `COC(=O)CC1(C(=O)OC)Nc2c([S+]([O-])C(F)(F)F)c(C#N)nn2-c2ccc(C(F)(F)F)c(Cl)c21` (stereo not shown) [e-7], 99%.
The same measure, in the same setting: to `COC(=O)CC1(C(=O)OC)Nc2c([S+]([O-])C(F)(F)F)c(C#N)nn2-c2c1ccc(Cl)c2C(F)(F)F` (stereo not shown) [e-13] belongs 100%.
Still for that read-out and setting: the result for `COC(=O)CC1(C(=O)OC)Nc2c([S+]([O-])C(F)(F)F)c(C#N)nn2-c2cc(C(F)(F)F)c(Cl)cc21` (stereo not shown) [e-19] reads 90%.

The test system of the next data set is Spodoptera exigua. Put plainly: whole plant or invertebrate. Type of data set: in vivo. The settings on record: 500 ppm; 2nd-instar larvae, leaf immersion feeding. A digest of the protocol: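 Cabbage leaf discs dipped 5 s in 500 ppm compound (0.05% Tween-80 aqueous), air-dried, fed to about 35 2nd-instar larvae at 28° C, three replicates. Deaths counted at 24 h; mortality corrected against Tween-80 control.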
`CNC(=O)CC1Nc2c(OC(F)(F)F)c(C#N)nn2-c2c(Cl)cc(C(F)(F)F)cc21` (stereo not drawn) [d-133]: the “Spodoptera exigua Mortality (%)” value turned out to be 86%.
`CC(C)C1Nc2c(OC(F)(F)F)c(C#N)nn2-c2c(Cl)cc(C(F)(F)F)cc21` (stereo not drawn) [d-141]: the “Spodoptera exigua Mortality (%)” value came out at 95%.
Regarding `COC(=O)CC1(C(=O)OC)Nc2c([S+]([O-])C(F)(F)F)c(C#N)nn2-c2c(C(F)(F)F)ccc(Cl)c21` (stereo not shown) [e-1], the “Spodoptera exigua Mortality (%)” value came to 100%.
Same read-out and setting: to `CCOC(=O)CC1(C(=O)OC)Nc2c([S+]([O-])C(F)(F)F)c(C#N)nn2-c2c(C(F)(F)F)ccc(Cl)c21` (stereo not shown) [e-2] belongs 100%.
On the same count and under the same terms, the result for `COC(=O)C1(CC(=O)OCC(F)(F)F)Nc2c([S+]([O-])C(F)(F)F)c(C#N)nn2-c2c(C(F)(F)F)ccc(Cl)c21` (stereo not shown) [e-3] reads 95%; that for `COC(=O)C1(CC(=O)OCC(F)F)Nc2c([S+]([O-])C(F)(F)F)c(C#N)nn2-c2c(C(F)(F)F)ccc(Cl)c21` (stereo not shown) [e-4], 100%; that for `CCOC(=O)CC1(C(=O)OCC)Nc2c([S+]([O-])C(F)(F)F)c(C#N)nn2-c2c(C(F)(F)F)ccc(Cl)c21` (stereo not shown) [e-5], 100%.
Still for that read-out and setting: the result for `CCOC(=O)C1(CC(=O)OC)Nc2c([S+]([O-])C(F)(F)F)c(C#N)nn2-c2c(C(F)(F)F)ccc(Cl)c21` (stereo not shown) [e-6] reads 100%.
As to `COC(=O)CC1(C(=O)OC)Nc2c([S+]([O-])C(F)(F)F)c(C#N)nn2-c2ccc(C(F)(F)F)c(Cl)c21` (stereo not shown) [e-7], the “Spodoptera exigua Mortality (%)” value is reported as 100%.
Still for that read-out and setting: the result for `COC(=O)CC1(C(=O)OC)Nc2c([S+]([O-])C(F)(F)F)c(C#N)nn2-c2c1ccc(Cl)c2C(F)(F)F` (stereo not shown) [e-13] reads 100%; that for `COC(=O)CC1(C(=O)OC)Nc2c([S+]([O-])C(F)(F)F)c(C#N)nn2-c2cc(C(F)(F)F)c(Cl)cc21` (stereo not shown) [e-19], 100%.

The next data set relates to Aphis craccivora. Put plainly: whole plant or invertebrate. Particulars: 500 ppm; wingless adults, immersion 5 seconds, counted after 24 hours. It counts as in vivo. In short, it runs like this: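 Wingless adults feeding on bean sprouts were dipped with the sprouts for 5 s in 500 ppm compound in aqueous 0.05% Tween-80, air-dried, then held at 23° C. Dead aphids counted after 24 h, triplicate, with 0.05% Tween-80 as control. Mortality (%) = (control live − treated live)/control live × 100.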
For `CNC(=O)CC1Nc2c(OC(F)(F)F)c(C#N)nn2-c2c(Cl)cc(C(F)(F)F)cc21` (stereo not drawn) [d-133], the “Aphis craccivora Mortality (%)” value came to 100%.
As for `CC(C)C1Nc2c(OC(F)(F)F)c(C#N)nn2-c2c(Cl)cc(C(F)(F)F)cc21` (stereo not drawn) [d-141], the “Aphis craccivora Mortality (%)” value was determined as 100%.
Turning to `COC(=O)CC1(C(=O)OC)Nc2c([S+]([O-])C(F)(F)F)c(C#N)nn2-c2c(C(F)(F)F)ccc(Cl)c21` (stereo not shown) [e-1], the “Aphis craccivora Mortality (%)” value is on record as 100%.
Still for that read-out and setting: the result for `CCOC(=O)CC1(C(=O)OC)Nc2c([S+]([O-])C(F)(F)F)c(C#N)nn2-c2c(C(F)(F)F)ccc(Cl)c21` (stereo not shown) [e-2] reads 100%; that for `COC(=O)C1(CC(=O)OCC(F)(F)F)Nc2c([S+]([O-])C(F)(F)F)c(C#N)nn2-c2c(C(F)(F)F)ccc(Cl)c21` (stereo not shown) [e-3], 100%; that for `COC(=O)C1(CC(=O)OCC(F)F)Nc2c([S+]([O-])C(F)(F)F)c(C#N)nn2-c2c(C(F)(F)F)ccc(Cl)c21` (stereo not shown) [e-4], 100%.
On the same count and under the same terms, to `CCOC(=O)CC1(C(=O)OCC)Nc2c([S+]([O-])C(F)(F)F)c(C#N)nn2-c2c(C(F)(F)F)ccc(Cl)c21` (stereo not shown) [e-5] belongs 100%.
As to `CCOC(=O)C1(CC(=O)OC)Nc2c([S+]([O-])C(F)(F)F)c(C#N)nn2-c2c(C(F)(F)F)ccc(Cl)c21` (stereo not shown) [e-6], the “Aphis craccivora Mortality (%)” value was found to be 100%.
Regarding `COC(=O)CC1(C(=O)OC)Nc2c([S+]([O-])C(F)(F)F)c(C#N)nn2-c2ccc(C(F)(F)F)c(Cl)c21` (stereo not shown) [e-7], the “Aphis craccivora Mortality (%)” value is listed as 100%.
As to `COC(=O)CC1(C(=O)OC)Nc2c([S+]([O-])C(F)(F)F)c(C#N)nn2-c2c1ccc(Cl)c2C(F)(F)F` (stereo not shown) [e-13], the “Aphis craccivora Mortality (%)” value was found to be 100%.
On the same count and under the same terms, to `COC(=O)CC1(C(=O)OC)Nc2c([S+]([O-])C(F)(F)F)c(C#N)nn2-c2cc(C(F)(F)F)c(Cl)cc21` (stereo not shown) [e-19] belongs 100%.
